Literature values in patent US20200046643A1, “EXTENDED RELEASE FORMULATIONS OF CANNABINOIDS” (Glatt GmbH, priority 2018, published 2020).

Key:
[1] = after oral administration

C=C(C)[C@@H]1CCC(C)=C[C@H]1c1c(O)cc(CCCCC)cc1O [CBD, cannabidiol]
solubility in organic solvents (organic solvents): soluble in organic solvents
solubility in water: insoluble in water

CCCCCc1cc(O)c2c(c1)OC(C)(C)[C@@H]1CCC(C)=C[C@@H]21 [THC, Δ9-tetrahydrocannabinol]
duration of action [1]: 2 to 4 h
duration of appetite-increasing action [1]: up to 24 hours
duration of psychoactive action [1]: 4 to 6 h

CCCCCc1cc(O)c2c(c1)OC(C)(C)[C@@H]1CCC(C)=C[C@@H]21 [dronabinol]
solubility in water: insoluble in water
